Experimental data published in PMC6145916, “Interaction of mitochondrial fission factor with dynamin related protein 1 governs physiological mitochondrial function in vivo” (Scientific Reports, 2018).
Where no end group is shown, it is not given here.

Test system: wild-type mice
Test: Open-field activity chamber behavior
Type: in vivo, mouse
Conditions: 3 mg/Kg/day
Description: (a) Quantification of mitochondrial Drp1 content relative to ALDH2 (a mitochondrial matrix enzyme) in the mitochondrial fraction isolated from total brain lysate of wild-type mice (Western blot shown in Fig. S3B) (n = 4 mice). (b) ATP content in brain tissue of wild-type mice (n = 4 mice, 2 replicates). (c) Representative transmission electron microscopy images of the striatum from wild-type mice. […] The first principal component represents 42% of the variation. (f) Local linear embedding dimensionality reduction and visualization of all behaviors collected weekly from TAT- (black) or P259- (purple) treated WT and TAT- (white) treated R6/2 mice over the course of 8 weeks. […] All behavior and survival tests were conducted by an experienced observer who was blinded to the treatment groups. Data are mean ± s.e.
Five-week old R6/2 HD mice and their wild-type littermates (a total of 60 mice) were implanted subcutaneously with a 28-d Alzet osmotic pump with either P259-TAT or TAT control peptide (15 mice per group) to be delivered continuously at a rate of 3 mg/Kg/day, as previously described. All mice were implanted twice for a total of an 8-week treatment. 20 of the WT mice were implanted 3 times for a total of a 12-week treatment at 3 mg/Kg/day. All the experiments were in accordance with protocols approved by the Institutional Animal Care and Use Committee of Stanford University and were performed based on the National Institutes of Health Guide for the Care and Use of Laboratory Animals. All methods were carried out in accordance with the relevant guidelines and regulations. […]
Survival and behavioral mice studies […]
All behavior and […]
survival tests were conducted by an experienced ob server who was blinded to the treatment groups.
Behavioral tests were administered weekly in an open-field activity arena (Med Associate s Inc, St.
Albans, VT. Model ENV-515) equipped with three planes of infrared detectors within a sound-proof chamber (Med Associates Inc., St. Albans, VT. MED-017-027), as described previously.12 Each mouse was placed in a corner of the chamber and was tracked for a period of 15 minutes.
The following activities were recorded: digging duration, grooming duration, climbing duration, rearing duration, seizure frequency, average velocity, active behaviors, total distance moved, jump counts/time, ambulatory counts/distance/time, latency towards center, stereotypic time/counts, resting time, vertical counts/time, and zone entries (center/periphery).
Dimensionality reduction of mouse behavior data
The collection of weekly behavior parameters for wild-type mice treated with P259 or the TAT control was assembled into a vector with a total of 180 behavior parameters per mouse. The top 20% of parameters contributing to treatment classification were filtered by using a combination of the ANOVA F- and the mutual information scores for each behavior. The filtered dataset was normalized and principal component analysis was performed using the Python scikit-learn package. An eigenvector was extracted to determine the contribution of each behavior to the first […]
treated wild-type mice and control-treated R6/2 mice during the eight-week treatment were assembled into a single vector for each mouse. The dataset was normalized and local linear embedding from the Python scikit-learn package was used to reduce the dimensionality of and visualize the behavior parameters.

[1] = 8-week treatment, WT mice, n = 10 mice

Substance: YGRKKRRQRRRGSGIIQLPEIVVV-NH2 (C-terminus assumed) [P259]
- active mouse behaviors [1]: less active
- jumping and climbing [1]: jumped and climbed less frequently
- total distance moved [1]: travelled for a shorter distance
- behavior profile, principal component analysis (top 20% of behaviors) (12 weeks, WT mice, vs TAT): successfully separated the behavior profile of P259- and TAT control-treated mice
- jump counts/time, periphery-to-center transition, movement counts, stereotypic time (WT mice, tested weekly, 12 weeks, vs TAT-treated mice): performed worse than TAT-treated mice
- aggregate behavior score (local linear embedding) (weekly over 8 weeks, P259-treated WT vs TAT-treated WT and TAT-treated R6/2 mice): intermediate aggregate behavior score between WT- and R6/2 control-treated mice
